Measured values from PubChem BioAssay AID1259411 (Chemical Carcinogenesis Research Information System (CCRIS), 2018).
Calls of active or inactive are those of the source. How the calls were made is not given here.

System: rodent carcinogenicity bioassays, tumor incidence
Test: CCRIS carcinogenicity studies
From the text: The CCRIS database contains chemical records with carcinogenicity, mutagenicity, tumor promotion, and tumor inhibition test results. It was developed by the National Cancer Institute (NCI). Data are derived from studies cited in primary journals, current awareness tools, NCI reports, and other sources. Test results have been reviewed by experts in carcinogenesis and mutagenesis.
CCRIS provides historical information from the years 1985 - 2011. It is no longer updated.
This is an archive assay for CCRIS carcinogenicity studies.

SMILES: CCOC(=O)C(O)(c1ccc(Cl)cc1)c1ccc(Cl)cc1
- carcinogen call (Species: MOUSE, Strain/Sex: B6C3F1/FEMALE, Route: ORAL, Dose: 0, 3200, 5908 PPM IN DIET FOR 78 WK (STUDY DURATION: 90-91 WK), Dose: 0, 3200, 5908 PPM IN DIET FOR 78 WK (STUDY DURATION: 90-91 WK), Tumor Site: Type of Lesion: LIVER: HEPATOCELLULAR CARCINOMA): active; positive
- carcinogen call (Species: MOUSE, Strain/Sex: B6C3F1/MALE, Route: ORAL, Dose: 0, 4231, 7846 PPM IN DIET FOR 78 WK (STUDY DURATION: 90-91 WK), Dose: 0, 4231, 7846 PPM IN DIET FOR 78 WK (STUDY DURATION: 90-91 WK), Tumor Site: Type of Lesion: LIVER: HEPATOCELLULAR CARCINOMA): active; positive
- carcinogen call (Species: RAT, Strain/Sex: OSBORNE-MENDEL/FEMALE, Route: ORAL, Dose: 0, 1175, 2229 PPM IN DIET FOR 78 WK (STUDY DURATION: 110-111 WK), Dose: 0, 1175, 2229 PPM IN DIET FOR 78 WK (STUDY DURATION: 110-111 WK), Tumor Site: Type of Lesion: ADRENAL GLAND: CORTICAL ADENOMA): equivocal
- carcinogen call (Species: RAT, Strain/Sex: OSBORNE-MENDEL/MALE, Route: ORAL, Dose: 0, 1600, 2995 PPM IN DIET FOR 78 WK (STUDY DURATION: 110-111 WK), Dose: 0, 1600, 2995 PPM IN DIET FOR 78 WK (STUDY DURATION: 110-111 WK), Tumor Site: Type of Lesion: ADRENAL GLAND: CORTICAL ADENOMA): equivocal

SMILES: O=C1CCc2ccccc2O1
- carcinogen call (Species: MOUSE, Strain/Sex: B6C3F1/FEMALE, Route: GAVAGE, Dose: 0, 200, 400, 800 MG/KG IN CORN OIL 1/D 5 D/WK FOR 103 WK (STUDY DURATION: 103 WK), Dose: 0, 200, 400, 800 MG/KG IN CORN OIL 1/D 5 D/WK FOR 103 WK (STUDY DURATION: 103 WK), Tumor Site: Type of Lesion: LIVER: HEPATOCELLULAR ADENOMA, HEPATOCELLULAR ADENOMA OR CARCINOMA): active; positive
- carcinogen call (Species: MOUSE, Strain/Sex: B6C3F1/MALE, Route: GAVAGE, Dose: 0, 200, 400, 800 MG/KG IN CORN OIL 1/D 5 D/WK FOR 103 WK (STUDY DURATION: 103 WK), Dose: 0, 200, 400, 800 MG/KG IN CORN OIL 1/D 5 D/WK FOR 103 WK (STUDY DURATION: 103 WK)): inactive; negative
- carcinogen call (Species: RAT, Strain/Sex: F344/FEMALE, Route: GAVAGE, Dose: 0, 150, 300, 600 MG/KG IN CORN OIL 1/D 5 D/WK FOR 103 WK (STUDY DURATION: 103 WK), Dose: 0, 150, 300, 600 MG/KG IN CORN OIL 1/D 5 D/WK FOR 103 WK (STUDY DURATION: 103 WK)): inactive; negative
- carcinogen call (Species: RAT, Strain/Sex: F344/MALE, Route: GAVAGE, Dose: 0, 150, 300, 600 MG/KG IN CORN OIL 1/D 5 D/WK FOR 103 WK (STUDY DURATION: 103 WK), Dose: 0, 150, 300, 600 MG/KG IN CORN OIL 1/D 5 D/WK FOR 103 WK (STUDY DURATION: 103 WK), Tumor Site: Type of Lesion: KIDNEY (RENAL TUBULE): ADENOMA): active; positive

SMILES: CS(=O)(=O)OCCCNCCCOS(C)(=O)=O
- carcinogen call (Species: MOUSE, Strain/Sex: B6C3F1/FEMALE, Route: INTRAPERITONEAL, Dose: 0, 20, 40 MG/KG 3/WK FOR 52 WK (STUDY DURATION: 52 WK), Dose: 0, 20, 40 MG/KG 3/WK FOR 52 WK (STUDY DURATION: 52 WK), Tumor Site: Type of Lesion: SUBCUTANEOUS TISSUE: SQUAMOUS CELL CARCINOMA, HEMATOPOIETIC SYSTEM: MALIGNANT LYMPHOMA): equivocal
- carcinogen call (Species: MOUSE, Strain/Sex: B6C3F1/MALE, Route: INTRAPERITONEAL, Dose: 0, 20, 40 MG/KG 3/WK FOR 52 WK (STUDY DURATION: 52 WK), Dose: 0, 20, 40 MG/KG 3/WK FOR 52 WK (STUDY DURATION: 52 WK), Tumor Site: Type of Lesion: SUBCUTANEOUS TISSUE: SQUAMOUS CELL CARCINOMA, HEMATOPOIETIC SYSTEM: MALIGNANT LYMPHOMA): equivocal
- carcinogen call (Species: RAT, Strain/Sex: SPRAGUE-DAWLEY/FEMALE, Route: INTRAPERITONEAL, Dose: 0, 12 MG/KG 3/WK FOR 52 WK, 24 MG/KG 3/WK FOR 34 WK, 48 MG/KG 3/WK FOR 27 WK (STUDY DURATION: 27-52 WK), Dose: 0, 12 MG/KG 3/WK FOR 52 WK, 24 MG/KG 3/WK FOR 34 WK, 48 MG/KG 3/WK FOR 27 WK (STUDY DURATION: 27-52 WK), Tumor Site: Type of Lesion: PERITONEUM: SARCOMA, FIBROMA OR FIBROSARCOMA): equivocal
- carcinogen call (Species: RAT, Strain/Sex: SPRAGUE-DAWLEY/MALE, Route: INTRAPERITONEAL, Dose: 0, 12 MG/KG 3/WK FOR 52 WK, 24 MG/KG 3/WK FOR 34 WK, 48 MG/KG 3/WK FOR 23 WK (STUDY DURATION: 23-52 WK), Dose: 0, 12 MG/KG 3/WK FOR 52 WK, 24 MG/KG 3/WK FOR 34 WK, 48 MG/KG 3/WK FOR 23 WK (STUDY DURATION: 23-52 WK), Tumor Site: Type of Lesion: PERITONEUM: SARCOMA, FIBROMA OR FIBROSARCOMA): equivocal

SMILES: CC/C(=C(\c1ccc(O)cc1)c1ccc(OCCN(C)C)cc1)c1ccccc1
- carcinogen call (Species: RAT, Strain/Sex: SPRAGUE-DAWLEY/FEMALE, Route: DERMAL, Dose: 0, 20, 140, 1000 UG/KG/D FOR 101 WK (STUDY DURATION: 101 WK), Dose: 0, 20, 140, 1000 UG/KG/D FOR 101 WK (STUDY DURATION: 101 WK)): inactive; negative

SMILES: Clc1ccc(-c2ccc(Cl)c(Cl)c2Cl)c(Cl)c1Cl
- carcinogen call (Species: RAT, Strain/Sex: SHERMAN/FEMALE, Route: ORAL, Dose: 100 MG/KG IN DIET, Tumor Site: Type of Lesion: LIVER: NEOPLASTIC NODULE, HEPATOCELLULAR CARCINOMA): active; positive
- carcinogen call (Species: RAT, Strain/Sex: SPRAGUE-DAWLEY/FEMALE, Route: ORAL, Dose: 0, 25, 50, 100 PPM IN DIET FOR THE DURATION OF STUDY (STUDY DURATION: 24 MO), Dose: 0, 25, 50, 100 PPM IN DIET FOR THE DURATION OF STUDY (STUDY DURATION: 24 MO), Tumor Site: Type of Lesion: LIVER: TUMOR): active; positive
- carcinogen call (Species: RAT, Strain/Sex: SPRAGUE-DAWLEY/FEMALE, Route: ORAL, Dose: 0, 100 PPM IN DIET FOR 16 MO AND 50 PPM FOR AN ADDITIONAL 8 MO FOLLOWED BY CONTROL DIET FOR 5 MO (STUDY DURATION: 29 MO), Tumor Site: Type of Lesion: LIVER: TRABECULAR CARCINOMA, ADENOCARCINOMA): active; positive
- carcinogen call (Species: RAT, Strain/Sex: SPRAGUE-DAWLEY/MALE, Route: ORAL, Dose: 0, 25, 50, 100 PPM IN DIET FOR THE DURATION OF STUDY (STUDY DURATION: 24 MO), Dose: 0, 25, 50, 100 PPM IN DIET FOR THE DURATION OF STUDY (STUDY DURATION: 24 MO), Tumor Site: Type of Lesion: THYROID GLAND: ADENOMA OR CARCINOMA, LIVER: TUMOR): active; positive
- carcinogen call (Species: RAT, Strain/Sex: SPRAGUE-DAWLEY/MALE, Route: ORAL, Dose: 0, 100 PPM IN DIET FOR 16 MO AND 50 PPM FOR AN ADDITIONAL 8 MO FOLLOWED BY CONTROL DIET FOR 5 MO (STUDY DURATION: 29 MO)): inactive; negative
- carcinogen call (Species: RAT, Strain/Sex: WISTAR/MALE, Route: ORAL, Dose: 0, 50, 100 PPM IN A 10% PROTEIN DIET FOR 4 MO (STUDY DURATION: 4 MO), Dose: 0, 50, 100 PPM IN A 10% PROTEIN DIET FOR 4 MO (STUDY DURATION: 4 MO), Tumor Site: Type of Lesion: THYMUS: NEOPLASM, SPLEEN: NEOPLASM): active; positive

SMILES: Nc1ccn([C@@H]2O[C@H](CO)[C@@H](O)C2O)c(=O)n1 (stereo partly drawn)
- carcinogen call (Species: RAT, Strain/Sex: SPRAGUE-DAWLEY/FEMALE, Route: INTRAPERITONEAL, Dose: 0, 5, 25 MG/KG IN PHYSIOLOGICAL SALINE 5/WK FOR 72 WK (STUDY DURATION: LIFETIME), Dose: 0, 5, 25 MG/KG IN PHYSIOLOGICAL SALINE 5/WK FOR 72 WK (STUDY DURATION: LIFETIME)): inactive; negative
- carcinogen call (Species: RAT, Strain/Sex: SPRAGUE-DAWLEY/FEMALE, Route: INTRAPERITONEAL, Dose: 0, 500, 1500 MG/KG IN PHYSIOLOGICAL SALINE ON D 1, 3, 5 WITHIN 3 MO, CYCLE REPEATED 6 TIMES (STUDY DURATION: LIFETIME), Dose: 0, 500, 1500 MG/KG IN PHYSIOLOGICAL SALINE ON D 1, 3, 5 WITHIN 3 MO, CYCLE REPEATED 6 TIMES (STUDY DURATION: LIFETIME)): inactive; negative
- carcinogen call (Species: RAT, Strain/Sex: SPRAGUE-DAWLEY/MALE, Route: INTRAPERITONEAL, Dose: 0, 5, 25 MG/KG IN PHYSIOLOGICAL SALINE 5/WK FOR 72 WK (STUDY DURATION: LIFETIME), Dose: 0, 5, 25 MG/KG IN PHYSIOLOGICAL SALINE 5/WK FOR 72 WK (STUDY DURATION: LIFETIME)): inactive; negative
- carcinogen call (Species: RAT, Strain/Sex: SPRAGUE-DAWLEY/MALE, Route: INTRAPERITONEAL, Dose: 0, 500, 1500 MG/KG IN PHYSIOLOGICAL SALINE ON D 1, 3, 5 WITHIN 3 MO, CYCLE REPEATED 6 TIMES (STUDY DURATION: LIFETIME), Dose: 0, 500, 1500 MG/KG IN PHYSIOLOGICAL SALINE ON D 1, 3, 5 WITHIN 3 MO, CYCLE REPEATED 6 TIMES (STUDY DURATION: LIFETIME)): inactive; negative
